Data as given in patent US20090118286A1, “Heterobicyclic Acrylamides” (Bayer Cropscience AG, priority 2005, published 2009).

Assay: log P determination by HPLC (EEC Directive 79/831 Annex V.A8, gradient method)
Format: physicochemical

Question: For `Cc1cn2c(/C=C/C(=O)NC(C)C(F)(F)F)c(-c3ccccc3Cl)nc2s1` (centres unmarked) [Example 0861], which “Physical data: logP” value is on record?
Answer: Its value is 2.85.

Question: Which “Physical data: logP” value does the source give for `CC(C)(C)CNC(=O)/C=C/c1c(-c2ccccc2Cl)nc2sc(-c3ccc(C(F)(F)F)cc3)nn12` [Example 0841] here?
Answer: The value was 4.68.

Question: Which “Physical data (logP)” value does the source give for `O=Cc1c(-c2cccnc2Cl)nc2sc(C(F)(F)F)nn12` [IVA116] here?
Answer: The value was 2.14.

Question: Which “Physical data: logP” value does the source give for `CC(NC(=O)/C=C/c1c(-c2ccccc2Cl)nc2sc(C(C)(C)C)nn12)C(F)(F)F` (centres unmarked) [Example 0795] here?
Answer: The value was 3.88.

Question: For `CCCC(C)NC(=O)/C=C/c1c(-c2cccc(C(F)(F)F)c2)nc2sc(C(F)(F)F)nn12` (centres unmarked) [Example 0381], which “Physical data: log P” value is on record?
Answer: The value was 4.56.

Question: With `COCc1nn2c(/C=C/C(=O)Nc3ccc(C(F)(F)F)cc3)c(-c3ccccc3Cl)nc2s1` [Example 0835] as the compound, how does the “Physical data: logP” value read?
Answer: Its value is 3.99.

Question: Which “Physical data (logP)” value does the source give for `CC(C)C(C)NC(=O)/C=C/c1c(-c2cccc(Cl)c2)nc2sc(C(F)(F)F)nn12` (centres unmarked) [Example 0094] here?
Answer: Its value is 4.32.

Question: With `CC(C)C(NC(=O)C=Cc1c(-c2nccs2)nc2sc(C(F)(F)C(F)(F)F)nn12)C(F)(F)F` (centres unmarked) [Example 0988] as the compound, how does the “Physical data: logP” value read?
Answer: The value was 4.35.

Question: Which “Physical data: log P” value does the source give for `O=C(/C=C/c1c(-c2cccc(C(F)(F)F)c2)nc2sc(C(F)(F)F)nn12)NCC1CC1` [Example 0379] here?
Answer: Its value is 3.94.

Question: Which “Physical data (logP)” value does the source give for `O=C(O)/C=C/c1c(-c2ccc(F)cc2Cl)nc2sc(C(F)(F)F)nn12` [VA-9] here?
Answer: Its value is 2.84.

Question: Which “Physical data (logP)” value does the source give for `CCN(CC)C(=O)/C=C/c1c(-c2cccc(Cl)c2)nc2sc(C(F)(F)F)nn12` [Example 0140] here?
Answer: The value was 4.28.

Question: For `O=C(O)/C=C/c1c(-c2ccccc2Cl)nc2sc(C(F)(F)Cl)nn12` [VA-24], which “Physical data (logP)” value is on record?
Answer: Its value is 2.93.

Question: Which “Physical data: logP” value does the source give for `Cc1csc2nc(-c3ccccc3Cl)c(/C=C/C(=O)NCC(F)(F)C(F)(F)C(F)(F)F)n12` [Example 0903] here?
Answer: The value was 3.22.

Question: With `COc1ccc(-c2nc3sc(C(F)(F)F)nn3c2/C=C/C(=O)N2CCCCC2)cc1OC` [Example 0717] as the compound, how does the “Physical data: logP” value read?
Answer: The value was 3.41.

Question: For `CCC(C)NC(=O)/C=C/c1c(-c2ccccc2Cl)nc2sc(C)cn12` (centres unmarked) [Example 0869], which “Physical data: logP” value is on record?
Answer: Its value is 2.54.

Question: With `CC(C)(C)NC(=O)/C=C/c1c(-c2ccccc2Cl)nc2sc(C(F)(F)F)nn12` [Example 0150] as the compound, how does the “Physical data (logP)” value read?
Answer: The value was 3.72.

Question: For `CCN(CC)C(=O)/C=C/c1c(-c2ccccc2C)nc2sc(C(F)(F)F)nn12` [Example 0292], which “Physical data: log P” value is on record?
Answer: Its value is 3.75.

Question: For `O=C(/C=C/c1c(-c2ccc(Cl)cc2Cl)nc2sc(C(F)(F)F)nn12)N1CCOCC1` [Example 0575], which “Physical data: log P” value is on record?
Answer: The value was 3.34.

Question: For `O=Cc1c(-c2ccc(-c3ccc(OC(F)(F)F)cc3)cc2)nc2sc(C(F)(F)F)nn12` [IVA121], which “Physical data (logP)” value is on record?
Answer: The value was 4.78.

Question: Which “Physical data: log P” value does the source give for `CCC(CC)NC(=O)/C=C/c1c(-c2cccc(C(F)(F)F)c2)nc2sc(C(F)(F)F)nn12` [Example 0428] here?
Answer: Its value is 4.41.

Question: For `COCC(C)NC(=O)/C=C/c1c(-c2ccccc2Cl)nc2sc(C(F)(F)F)nn12` (racemic) [Example 0169], which “Physical data (logP)” value is on record?
Answer: The value was 2.99.

Question: For `Cc1ccccc1-c1nc2sc(C(F)(F)F)nn2c1/C=C/C(=O)NOC(C)c1ccccc1` (centres unmarked) [Example 0284], which “Physical data: log P” value is on record?
Answer: The value was 3.81.

Question: For `CC(NC(=O)/C=C/c1c(-c2cccc(Cl)c2)nc2sc(C(F)(F)F)nn12)c1ccccc1` (centres unmarked) [Example 0108], which “Physical data (logP)” value is on record?
Answer: The value was 4.37.

Question: For `CC(ONC(=O)/C=C/c1c(-c2ccc(Cl)cc2Cl)nc2sc(C(F)(F)F)nn12)c1ccccc1` (centres unmarked) [Example 0565], which “Physical data: log P” value is on record?
Answer: Its value is 4.23.

Question: Which “Physical data: logP” value does the source give for `CCC(NC(=O)/C=C/c1c(-c2ccc(OC)c(OC)c2)nc2sc(C(F)(F)F)nn12)C1CCCCC1` (centres unmarked) [Example 0691] here?
Answer: Its value is 4.46.

Question: With `CC(NC(=O)/C=C/c1c(-c2cccc(Cl)c2)nc2sc(C(F)(F)F)nn12)c1cccnc1` (centres unmarked) [Example 0124] as the compound, how does the “Physical data (logP)” value read?
Answer: The value was 2.8.
